Experimental data from patent US5527900A, “N3-alkyl-2',5'-0-silylated-3'-spiro-thymidine derivatives” (Stitching Rega VZW, priority 1991, dated 1996).
≈ marks a conversion by molar mass, not a printed value. Read-outs that look alike come from different tables or passages of the source.

Experiments:
[1] = tested on: MT-4 cell DNA, RNA or protein synthesis; assay: Incorporation of radiolabeled DNA, RNA or protein precursors into TCA-insoluble MT-4 cell material (summary in words); type: cell-based; details: for inhibition of incorporation of dThd, dUrd, dCyd, Urd, Cyd or leucine: at 100 μg/ml
Source text: (§1) The radiolabeled nucleosides [methyl-^3 H]dThd (specific radioactivity: 40 Ci/mmol), [5-^3 H]dUrd (specific radioactivity: 27 Ci/mmol), [5-^3 H]dCyc (specific radioactivity: 18.2 Ci/mmol) and the radiolabeled amino acid L-[4,5-^3 H]leucine (specific radioactivity: 52 Ci/mmol were derived from the Radiochemcial Centre (Amersham, England); [5-^3 H]Urd (specific radioactivity: 21 Ci/mmol) and [5-^3 H]Cyd (specific radioactivity: 21 Ci/mmol) and were obtained from Moravek Biochemicals Inc. (Brea, Calif.)
(§2) The incorporation of [methyl-^3 H]dThd, [5-^3 H]dUrd, [5-^3 H]dCyd, [5-^3 H]Urd, [5-^3 H]Cyd and L-[4,5-^3 H]1eu into TCA-insoluble MT-4 cell material was measured in wells of a 96-well microtiter plate (Falcon-3072, Becton-Dickinson, New Jersey). To each well were added 10^5 MT-4 cells, 0.25 μCi of the radiolabeled precursor and a given amount of test compound. The cells were allowed to proliferate for 20 to 24 hr at 37° C. in a humidified, CO2 -controlled atmosphere. At the end of this incubation period, the contents of the wells (200 μl) were brought onto 25-mm glass fiber filters (type A/E, Gelman Instrument Company, Ann Arbor, Mich.), and mounted on a Millipore 3025 sampling manifold apparatus. The filters were washed twice with 2 ml and 5 ml cold NaCl/Pi (phosphte-buffered saline), twice with 2 and 5 ml cold 10% trichloroacetic acid (TCA), twice with 5 and 7.5 ml cold 5% TCA, and twice with 1 ml cold ethanol.

[2] = Cytotoxicity for mock-infected MT-4 cells; details: human, mt-4 cells
Procedure: (§3) In order to evaluate the inhibitory effects against retrovirus-induced cytopathogenicity in MT-4cells, said cells (5×10^5 cells/ml) were suspended in fresh culture medium and infected with HIV-1, HIV-2 or SIOV at 100 times the cell culture infective dose-50 (CCID50) per ml cell suspension (1 CCID50 being the dose infective for 50% of the cell cultures). Then, 100 μl of the infected cell suspension were transferred to microplate wells, mixed with 100 μl of the appropriate dilutions of the test compounds, and further incubated at 37° C. After 5 days, the number of viable cells was determined in a blood cell-counting chamber by trypan blue staining for both virus-infected and mock-infected cell cultures.

MT-4 cells = assay: Cytotoxicity for mock-infected MT-4 cells; details: for cytotoxicity to MT-4 cells (in words): at 100 μg/ml
Procedure: as §3

MT-4 cell DNA synthesis = assay: Incorporation of radiolabeled precursors into MT-4 cell DNA; type: cell-based; details: Homo sapiens, MT4, MT-4 cells, 20 to 24 hr
Source text: as §1, §2

MT-4 cell RNA synthesis = assay: Incorporation of radiolabeled precursors into MT-4 cell RNA; type: cell-based; details: Homo sapiens, MT4, MT-4 cells, 20 to 24 hr
Source text: as §1, §2

HIV-2 strain (EHO) = assay: Activity against HIV-2 strain EHO; type: cell-based
HIV-1 (HTLV-IIIB) = assay: Anti-retrovirus activity: inhibition of HIV-1-induced cytopathogenicity in MT-4 cells; type: cell-based; details: for EC50: Human immunodeficiency virus 1, IIIB, MT4, 120 h; for S.I. (Selectivity Index): CC50/EC50, MT-4 cells
Source text: The viruses used were moloney murine sarcoma virus (MSV), HIV-1 (strain HTLV-IIIB, kindly provided by R. C. Gallo and M. Popovic, National Cancer Institute, Bethesda, Md.), HIV-2 (strain LAV-2(ROD)), kindly provided by L. Montagnier (Pasteur Institute, Paris, France), simian immunodeficiency virus (SIV) (strain SIVMAC251, kindly provided by C. Bruck, RIT-Smith-Kline, Rixensart, Belgium).
as §3

[3] = tested on: MT-4 cell protein synthesis; assay: Incorporation of radiolabeled leucine into MT-4 cell protein; type: cell-based; details: Homo sapiens, MT4; MT-4 cells, 20 to 24 hr; read-out: IC50, L-[4,5-3H]leucine incorporation
Source text: as §1, §2

[4] = Partition coefficient (Pa) between 1-octanol and 10 mM potassium phosphate buffer; type: physicochemical; details: 1-octanol / 10 mM potassium phosphate buffer, pH 7.5, 50 μM; for logD at 50 µM: room temperature
Procedure: Partition of the test compounds between 1-octanol (Merck, Darmstadt, Germany) and 10 mM potassium phosphate buffer, pH, 7.5 (Merck), was measured as described in Balzarini et al., Biochem, Biophys. Res. Commun. 158: 413-422 (1989). Briefly, a 50 μM concentration of the test compound in potassium phosphate buffer was thoroughly mixed with an equal volume of 1-octanol for 30 min at room temperature. Then, the mixture was further equilibrated at room temperature and UV absorption was measured for the aqueous and alcoholic liquid phases. The partition coefficient (Pa) was calculated as the ratio of the compound concentration present in the 1-octanol phase to the compound concentration present in the aqueous phase.

HIV-1 = assay: Antiviral activity upon delayed addition to HIV-1-infected MT-4 cells; type: cell-based
Procedure: as §3
Mt-4 cells were suspended in culture medium, infected with HIV-1 and brought into microplate wells as described above. […] After 5 days, the number of viable cells was determined and the EC50 and CC50 values for the test compounds were defined as described in example 1.

[5] = read-out: IC50, [5-3H]dCyd incorporation
[6] = read-out: IC50, [5-3H]dUrd incorporation
[7] = read-out: IC50, [methyl-3H]dThd incorporation
[8] = read-out: IC50, [5-3H]Cyd incorporation
[9] = read-out: IC50, [5-3H]Urd incorporation

Structure (SMILES) | CC50 at 120 h [2] | EC50 (HIV-1 (HTLV-IIIB)) | S.I. (Selectivity Index) (HIV-1 (HTLV-IIIB); Table 1) | presence in the n-octanol phase compared to the aqueous phase [4] | logD at 50 µM [4] | further results
CC(C)=CCn1c(=O)c(C)cn([C@@H]2O[C@H](CO[Si](C)(C)C(C)(C)C)[C@@]3(OS(=O)(=O)C=C3N)[C@H]2O[Si](C)(C)C(C)(C)C)c1=O [Compound 9, {1-[2', 5'-Bis-O-(tert-butyldimethylsilyl)-β-D-ribofuranosyl]-3-N-(3-methyl-2-butenyl)-thymine}-3'spiro-5"-{4"-amino-1", 2"-oxathiole-2", 2"-dioxide}] | 73 µg/mL (≈ 111 µM) | 0.239 µg/mL (≈ 0.363 µM) | 252 |  |  | inhibition of incorporation of dThd, dUrd, dCyd, Urd, Cyd or leucine [1]: did not markedly inhibit; cytotoxicity to MT-4 cells (in words) (MT-4 cells): not cytotoxic; IC50 (MT-4 cell DNA synthesis; [5]): > 100 µg/mL; IC50 (MT-4 cell DNA synthesis; [6]): > 100 µg/mL; IC50 (MT-4 cell DNA synthesis; [7]): > 100 µg/mL; IC50 (MT-4 cell RNA synthesis; [8]): > 100 µg/mL; IC50 (MT-4 cell RNA synthesis; [9]): > 100 µg/mL; activity against HIV-2 strain (EHO) (HIV-2 strain (EHO)): inactive; IC50 [3]: > 100 µg/mL
Cc1cn([C@@H]2O[C@H](CO)[C@@]3(OS(=O)(=O)C=C3N)[C@H]2O[Si](C)(C)C(C)(C)C)c(=O)[nH]c1=O [Compound 2] | 106 µg/mL (≈ 223 µM) | > 40 µg/mL | < 2,5 | more than 95% | > 1.3 | 
CC(=O)Nc1ccn([C@@H]2O[C@H](CO[Si](C)(C)C(C)(C)C)[C@@]3(OS(=O)(=O)C=C3N)[C@H]2O[Si](C)(C)C(C)(C)C)c(=O)n1 [Compound 15, {4-N-Acetyl-1-[2', 5'-bis-O-(tert-butyldimethylsilyl)-β-D-ribofuranosyl]cytosine}-3'-spiro-5"-{4"-amino-1",2"-oxathiole-2",2"-dioxide}] | 7.5 µg/mL (≈ 12.2 µM) | 0.097 µg/mL (≈ 0.157 µM) | 77 | more than 95% | > 1.3 | 
Cc1cn([C@@H]2O[C@H](COC(=O)c3ccccc3)[C@@]3(OS(=O)(=O)C=C3N)[C@H]2O[Si](C)(C)C(C)(C)C)c(=O)[nH]c1=O [Compound 4] | 20 µg/mL (≈ 34.5 µM) | > 8 µg/mL | < 2,5 | more than 95% | > 1.3 | 
Cc1cn([C@@H]2O[C@H](CO[Si](C)(C)C(C)(C)C)[C@@]3(OS(=O)(=O)C=C3N)[C@H]2O)c(=O)[nH]c1=O [Compound 3] | 45 µg/mL (≈ 94.6 µM) | > 20 µg/mL | < 2 | more than 95% | > 1.3 | 
CC(C)(C)[Si](C)(C)OC[C@H]1O[C@@H](n2cc(Br)c(=O)[nH]c2=O)[C@H](O[Si](C)(C)C(C)(C)C)[C@]12OS(=O)(=O)C=C2N [Compound 12] | 2.35 µg/mL (≈ 3.59 µM) | 0.206 µg/mL (≈ 0.315 µM) | 11 |  |  | activity against HIV-2 strain (EHO) (HIV-2 strain (EHO)): inactive
CC(C)(C)[Si](C)(C)OC[C@H]1O[C@@H](n2cnc3c(N)ncnc32)[C@H](O[Si](C)(C)C(C)(C)C)[C@]12OS(=O)(=O)C=C2N [Compound 17] | 7.3 µg/mL (≈ 12.2 µM) | 0.162 µg/mL (≈ 0.271 µM) | 45 |  |  | activity against HIV-2 strain (EHO) (HIV-2 strain (EHO)): inactive
C=CCn1c(=O)ccn([C@@H]2O[C@H](CO[Si](C)(C)C(C)(C)C)[C@@]3(OS(=O)(=O)C=C3N)[C@H]2O[Si](C)(C)C(C)(C)C)c1=O [Compound 13, {1-[2', 5'-Bis-O-(tert-butyldimethylsilyl)-62 -D-ribofuranosyl]-3-N-allyl-uracil}-3'-spiro-5"-{4"-amino-1", 2"-oxathiole-2", 2"-dioxide}] | 5.31 µg/mL (≈ 8.62 µM) | 0.364 µg/mL (≈ 0.591 µM) | 15 |  |  | 
CC(C)(C)[Si](C)(C)OC[C@H]1O[C@@H](n2ccc(=O)[nH]c2=O)[C@H](O[Si](C)(C)C(C)(C)C)[C@]12OS(=O)(=O)C=C2N [Compound 11, {1-[2', 5'-Bis-O-(tert-butyldimethylsilyl)-β-D-ribofuranosyl]uracil}-3'-spiro-5"-{4"-amino-1", 2"-oxathiole-2", 2"-dioxide}] | 8.3 µg/mL (≈ 14.4 µM) | 0.114 µg/mL (≈ 0.198 µM) | 73 | more than 95% | > 1.3 | inhibition of incorporation of precursors relative to inhibition of MT-4 cell proliferation ([1]; Table 2 discussion): equally inhibitory; preferential inhibition of incorporation of one precursor over the others ([1]; Table 2 discussion): neither; inhibition of incorporation of dThd, dUrd, dCyd, Urd, Cyd or leucine [1]: did not markedly inhibit; inhibition of MT-4 cell proliferation (in words) (MT-4 cells): inhibitory to MT-4 cell proliferation; cytotoxicity to MT-4 cells (in words) (MT-4 cells): not cytotoxic; IC50 (MT-4 cell DNA synthesis; [5]): 18 µg/mL (≈ 31.3 µM); IC50 (MT-4 cell DNA synthesis; [6]): 12 µg/mL (≈ 20.8 µM); IC50 (MT-4 cell DNA synthesis; [7]): 38 µg/mL (≈ 66 µM); IC50 (MT-4 cell RNA synthesis; [8]): 11 µg/mL (≈ 19.1 µM); IC50 (MT-4 cell RNA synthesis; [9]): 11 µg/mL (≈ 19.1 µM); IC50 [3]: 14 µg/mL (≈ 24.3 µM)
Cc1cn([C@@H]2O[C@H](CO)[C@@]3(OS(=O)(=O)C=C3N)[C@H]2O)c(=O)[nH]c1=O [Compound 1] | > 100 µg/mL |  |  |  | -0.932 | EC50 (HIV-1 (HTLV-IIIB); Table 1, HIV-1 in MT-4 cells, 5 days, read-out: EC50): > 100 µg/mL
C=CCn1c(=O)c(C)cn([C@@H]2O[C@H](CO[Si](C)(C)C(C)(C)C)[C@@]3(OS(=O)(=O)C=C3N)[C@H]2O[Si](C)(C)C(C)(C)C)c1=O [Compound 8, {1-[2', 5'-Bis-O-(tert-butyldimethylsilyl)-β-D-ribofuranosyl]-3-N-allyl-thymine}-3'-spiro-5"{4"-amino-1", 2"-oxathiole-2", 2"-dioxide}] | > 200 µg/mL | 0.141 µg/mL (≈ 0.224 µM) | > 1418 | more than 95% | > 1.3 | inhibition of incorporation of dThd, dUrd, dCyd, Urd, Cyd or leucine [1]: did not markedly inhibit; cytotoxicity to MT-4 cells (in words) (MT-4 cells): not cytotoxic; IC50 (MT-4 cell DNA synthesis; [5]): > 100 µg/mL; IC50 (MT-4 cell DNA synthesis; [6]): > 100 µg/mL; IC50 (MT-4 cell DNA synthesis; [7]): > 100 µg/mL; IC50 (MT-4 cell RNA synthesis; [8]): > 100 µg/mL; IC50 (MT-4 cell RNA synthesis; [9]): > 100 µg/mL; IC50 [3]: > 100 µg/mL
CCc1cn([C@@H]2O[C@H](CO[Si](C)(C)C(C)(C)C)[C@@]3(OS(=O)(=O)C=C3N)[C@H]2O[Si](C)(C)C(C)(C)C)c(=O)[nH]c1=O [Compound 10, {1-[2', 5'-Bis-O-(tert-butyldimethylsilyl)-β-D-ribofuranosyl]-5-ethyl-uracil}-3'-spiro-5"-{4"-amino-1",2"-oxathiole-2",2"-dioxide}] | 3.2 µg/mL (≈ 5.3 µM) | 0.038 µg/mL (≈ 0.0629 µM) | 82 |  |  | decrease of antiviral activity on delayed addition (HIV-1; addition delayed by 17-24 hours, data not shown): 10 fold; antiviral activity on delayed addition (HIV-1; addition delayed by 41 to 48 hours): almost totally lost
